Measurements: patent publication US20250099485A1, “COMPOSITIONS FOR PROMOTING HAIR GROWTH” (ESTETRA SRL, priority 2021, published 2025)

Assays:
[1] = test system: versican in dermal papilla (DP); test: Hair follicle organ culture: versican expression, DP inductivity; assay type: cell-based, human; conditions: all tested concentrations, vs vehicle
Protocol: 12-44 full-length frontotemporal hair follicles (HF) were obtained from four human female donors >50 years old. Donors were caucasian female subjects […], respectively (Donor 1: 12 temporal anagen HFs; Donor 2: 29; Donor 3: 44; Donor 4: 32). After microdissection from skin as described (Edelkamp et al., Methods Mol Biol, 2020, 2154:105-119; and Langan et al., Exp Dermatol, 2015, December; 24(12):903-1), HFs were placed in adequate culture medium and allowed a 24 h rest period to allow them to recover from the trauma of microdissection. Test substance (either vehicle (0.3% EtOH) or E4 at concentrations of 30 μM, 3 μM or 300 nM) was added to the medium at the end of the 24 h. Total culturing time was 5-7 days depending on the studied parameters and the experimental question. The experimental design for the hair follicle organ culture experiment is depicted in FIG. 12. Longer term culture experiments may be used to analyze the capacity to delay the onset of catagen.
Versican, a large chondroitin sulfate proteoglycan molecule, is expressed in DP in anagen HFs and diminishes in catagen HFs and its expression correlates with hair inductive properties (Yang, J Dermatol Sci 2010). Versican intensity was analyzed in the DP.

[2] = test system: mouse lymphoma cell line L5178Y TK^+/−; test: Generation of reactive oxygen species (ROS); assay type: cell-based; conditions: up to 3000 μM, 3 h exposure, vs vehicle control
Protocol: The objective of the study was to investigate the generation of reactive oxygen species (ROS) induced by the test item, estetrol (E4), in a mouse lymphoma cell line L5178Y TK^+/−.
L5178Y TK^+/− cells in logarithmic phase of growth were plated in black 96 well cell culture plates at 1×10^4 cells in 90 μL of cell culture media. Controls and test item in triplicate were applied to the cells as a 10× concentrate in 10 μL of a 10% ethanol solution in PBS (final concentration of ethanol on plate was 1%). Cells were incubated for 3 hours at 37° C., 5% CO2, and the generation of ROS was evaluated by fluorescence with a ROS reagent: the ROS reagent was freshly prepared by dissolving one ampoule of reagent (50 μg) in 70 μL DMSO and further diluting this with 2.1 mL of pre-warmed PBS. 10 μL of ROS reagent was added to each well and the plate were shaken for 30 seconds in the dark. The plates were incubated approximately at 37° C., 5% CO2 for 1 h 30 min and fluorescence was read on a plate scanner with excitation at 492 nm and emission at 520 nm.

[3] = test system: mouse BMDM (bone marrow derived monocytes); test: Immune cell polarization (qPCR NOS2/ARG1), mouse BMDM; assay type: cell-based; conditions: activated mouse bone marrow derived monocytes, qPCR marker
Protocol: Immune cell polarization was evaluated in vitro using markers for M1/TH-1 (NOS2) and M2/TH-2 (ARG1) phenotype with human monocytes and mouse monocytes (BMDM bone marrow derived monocytes).
An experiment was conducted to evaluate the anti-inflammatory effects of E4 or vehicle (negative control). qPCR methodology was used to assess the effects of E2 and E4 on immune cell polarization using well validated marker of pro-inflammatory (NOS2 for MI/TH-1 phenotype) and anti-inflammatory (ARG1 for ME/TH-2 phenotype) activity.

[4] = test system: Normal Human Epidermal Keratinocytes (NHEKs); test: Colonization of acellular area (IBIDI gap closure), keratinocytes; assay type: cell-based; conditions: 6 h and 24 h contact, cell gives time of significant effect; for NHEK Proliferation & Migration (colonization of acellular area vs ethanol control): absence of MMC; for NHEK Migration (+MMC) (colonization of acellular area vs ethanol control): presence of mitomycin C
Protocol: The study consists in an in vitro assay aiming to evaluate the properties of E4 and E2 at 4 concentrations each on keratinocytes and fibroblasts. In this assay, the measurement of the colonization of a standard acellular surface generated from a confluent monolayer of cells using a dedicated culture device (IBIDI chamber) is performed. The assay is performed in absence and in presence of a proliferation inhibitor to focus on cell proliferation and migration or on migration only, respectively.
The study was performed using cultures of Normal Human foreskin-derived Epidermal Keratinocytes (NHEKs, Lonza). The cells were grown in serum free Epilife medium (ThermoFisher Scientific) supplemented with Human Keratinocyte Growth Supplement (HKGS, ThermoFisher Scientific) and antibiotics. The cells were maintained in a humidified incubator at 37° C. with a 5% CO2 atmosphere.
Cells were plated in 2-well silicone inserts with a defined cell free gap (IBIDI chambers; IBIDI GmbH, 80209) that was previously inserted on 12-well culture plates. This culture device allows to create a standardized 500 μm±100 μm cell free gap for monitoring cell colonization. 24 h after seeding, when the culture reached high confluency, cells in the insert were treated, or not, with mitomycin C (MMC) at 10 μg/ml during 2 h. After these 2 hours, the insert was removed, and cells were treated with E2 or E4 in presence or not of MMC for additional 2 h. Then, if appropriate, the culture medium was removed and cells were treated with E2 or E4 for 22 h, in absence of MMC.
For the assay, keratinocytes were plated in Epilife medium without HKGS and all the treatments were performed in this medium. Fibroblasts were plated in DMEM medium containing only 2.5% of FBS and the treatments were performed in absence of FBS.
E2 and E4 were applied at 4 concentrations each (10^−7M, 10^−8M, 10^−9M, 10^−10M). In parallel, cells were treated with a positive control (HKGS 1% for human keratinocytes and PDGF-BB at 10 ng/ml for human fibroblasts).
To monitor cell colonization and to evaluate the gap closure rate, pictures of the gap were taken after different times: at time 0 h, corresponding to the beginning of the treatment with E2 or E4 and to the removal of the culture insert, at time 6 h and at time 24 h (corresponding to the end of the treatments with E2 or E4). Pictures were taken with a microscope Zeiss (Axiover 25-10× objective) and with a camera Invenio2EIII (DeltaPix—Lux-Optic). The colonized areas were quantified from the pictures by the use of the WimAsis platform—WimScratch software. For each insert, 3 pictures were taken at each time. As each condition was performed in triplicates, it means a total of 9 pictures per condition and per time point of acquisition

C[C@]12CC[C@@H]3c4ccc(O)cc4CC[C@H]3[C@@H]1[C@@H](O)[C@@H](O)[C@@H]2O [E4, 1,3,5 (10)-estratrien-3,15alpha,16alpha,17beta-tetrol]
versican expression in DP cells [1]: tendentially increased | levels of ROS [2]: dose-dependent decrease | immune cell polarization, mouse BMDM [3]: switch from subtype M1 (pro-inflammatory) to subtype M2 (healing) | NHEK Proliferation & Migration (colonization of acellular area vs ethanol control) ([4]; 10^−7M): significantly increased the colonization of the acellular area | NHEK Migration (+MMC) (colonization of acellular area vs ethanol control) ([4]; 10^−7M): significantly increased the colonization of the acellular area | NHEK Proliferation & Migration (colonization of acellular area vs ethanol control) ([4]; 10^−10M): significantly increased the colonization of the acellular area | NHEK Migration (+MMC) (colonization of acellular area vs ethanol control) ([4]; 10^−10M): significantly increased the colonization of the acellular area
